Assay results taken from article PMC12195982, “Design, Synthesis, and In Vitro Evaluation of 4-(Arylchalcogenyl)methyl)-1H-1,2,3-triazol-1-yl-menadione: Exploring Their Potential Against Tuberculosis” (Pharmaceuticals, 2025).
In brackets after ≈: the same amount, converted by molar mass.

Test system: INH- and RIF-resistant Mtb (strain T113/09, KatG and rpoB mutation)
Assay type: cell-based, Mycobacterium tuberculosis

Structure (SMILES)	MIC INH/RIFR-Mtb	fold more potent than INH
CC1=C(Cn2cc(C[Se]c3ccccc3)nn2)C(=O)c2ccccc2C1=O [Compound 9a, 2-methyl-3-((4-((phenylselanyl)methyl)-1H-1,2,3-triazolyl)methyl)naphthalene-1,4-dione]	3 µg/mL (≈ 7.1 µM)	at least 7 fold
CC1=C(C(c2ccc(C)cc2)n2cc(C[Se]c3ccccc3)nn2)C(=O)c2ccccc2C1=O (stereo not shown) [Compound 9h, 2-methyl-3-((4-((phenylselanyl)methyl)-1H-1,2,3-triazolyl)(p-methylphenyl)methyl) naphthalene-1,4-dione]	≤3 µg/mL	at least 7 fold
NNC(=O)c1ccncc1 [INH, isoniazid, reference compound]	8 µg/mL (≈ 58.3 µM)	–
CC1=C(Cn2cc(C[Se]c3cccc(C(F)(F)F)c3)nn2)C(=O)c2ccccc2C1=O [Compound 9c]	>99 µg/mL	–
CC1=C(C(c2ccccc2)n2cc(C[Se]c3ccccc3)nn2)C(=O)c2ccccc2C1=O (stereo not shown) [Compound 9g, 2-methyl-3-(phenyl(4-((phenylselanyl)methyl)-1H-1,2,3-triazolyl)methyl)naphthalene-1,4-dione]	≤3 µg/mL	at least 7 fold
CC1=C(Cn2cc(C[Se]c3ccc(Cl)cc3)nn2)C(=O)c2ccccc2C1=O [Compound 9b, 2-((4-(((4-chlorophenyl)selanyl)methyl)-1H-1,2,3-triazolyl)methyl)-3-methylnaphthalene-1,4-dione]	≤3 µg/mL	at least 7 fold
